Reference: patent US6448269B1 (Eli Lilly and Company, priority 1993, dated 2002)
Where a name gives a salt, the structure may show the parent alone.

What was measured:
[1] = test system: human platelet-rich plasma; experiment: Platelet aggregation assay (Aggregation-Human PRP/ADP); format: cell-based; settings: 1 min; human platelet-rich plasma incubated with compound 1 minute at 37° C.; ADP-induced aggregation; read-out: Agg: Human PRP/ADP IC50uM
Method: Platelet-rich plasma was prepared from healthy human volunteers for use in determining inhibition of platelet aggregation by the compounds.
Platelet-rich plasma was prepared at room temperature by centrifugation of the citrated whole blood at 100×g for 12 minutes. The platelet rich plasma contained approximately 200-400,000 platelets/μl.
Platelet-poor plasma was prepared by centrifugation of citrated whole blood at 12,000×g for 2 minutes.
Platelet aggregation was assayed in a 4-channel platelet aggregation profiler (PAP-4, Biodata, Hatboro, Pa.) according to the manufacturers directions. Inhibition of platelet aggregation was studied by adding varying amounts of […] to stirred human platelet-rich plasma. Specifically, the human platelet-rich plasma was incubated with the compound being tested for 1 minute at 37° C. prior to the addition of a variety of aggregating agents most often ADP 5 μM, but also 1 μg/ml collagen, 1 μM U46619 and 0.3 μM platelet activating factor.

GPIIb-IIIa = target: T1, GPIIb-IIIa (Homo sapiens, UniProt P05106+P08514); experiment: ELISA IIb-IIIa assay (fibrinogen binding to immobilized GPIIb-IIIa); settings: purified platelet GPIIb-IIIa receptor coated on ELISA plates; biotin-labeled fibrinogen 10 nM, 3 hours at 25° C.
T1 construct: Purified platelet GPIIb-IIIa receptor was prepared as described by Fitzgerald; from tissue; host or cells: platelets
T1 sequence (P08514 32-887 limits assumed): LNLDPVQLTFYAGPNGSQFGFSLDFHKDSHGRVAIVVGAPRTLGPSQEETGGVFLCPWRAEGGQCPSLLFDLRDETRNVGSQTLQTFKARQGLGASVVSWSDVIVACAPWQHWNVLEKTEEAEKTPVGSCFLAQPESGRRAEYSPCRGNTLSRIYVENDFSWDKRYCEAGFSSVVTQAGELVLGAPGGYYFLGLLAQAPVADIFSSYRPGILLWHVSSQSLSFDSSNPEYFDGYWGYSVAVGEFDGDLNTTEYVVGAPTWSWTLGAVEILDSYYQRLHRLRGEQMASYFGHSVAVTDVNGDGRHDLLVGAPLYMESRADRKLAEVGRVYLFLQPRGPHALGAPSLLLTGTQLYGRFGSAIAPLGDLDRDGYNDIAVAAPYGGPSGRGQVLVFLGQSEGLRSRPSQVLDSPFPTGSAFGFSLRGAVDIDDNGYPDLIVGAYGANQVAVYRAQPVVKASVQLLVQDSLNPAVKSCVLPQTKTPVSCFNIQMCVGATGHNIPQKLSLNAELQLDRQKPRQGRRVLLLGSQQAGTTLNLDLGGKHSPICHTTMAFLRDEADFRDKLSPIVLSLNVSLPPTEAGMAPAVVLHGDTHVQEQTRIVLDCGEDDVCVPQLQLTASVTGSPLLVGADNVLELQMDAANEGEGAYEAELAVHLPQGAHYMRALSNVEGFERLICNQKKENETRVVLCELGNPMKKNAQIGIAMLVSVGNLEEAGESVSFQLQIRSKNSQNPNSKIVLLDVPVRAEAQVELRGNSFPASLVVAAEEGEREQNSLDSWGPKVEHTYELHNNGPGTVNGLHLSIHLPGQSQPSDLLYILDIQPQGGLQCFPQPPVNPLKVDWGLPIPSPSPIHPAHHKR
T1 sequence (P05106 27-788): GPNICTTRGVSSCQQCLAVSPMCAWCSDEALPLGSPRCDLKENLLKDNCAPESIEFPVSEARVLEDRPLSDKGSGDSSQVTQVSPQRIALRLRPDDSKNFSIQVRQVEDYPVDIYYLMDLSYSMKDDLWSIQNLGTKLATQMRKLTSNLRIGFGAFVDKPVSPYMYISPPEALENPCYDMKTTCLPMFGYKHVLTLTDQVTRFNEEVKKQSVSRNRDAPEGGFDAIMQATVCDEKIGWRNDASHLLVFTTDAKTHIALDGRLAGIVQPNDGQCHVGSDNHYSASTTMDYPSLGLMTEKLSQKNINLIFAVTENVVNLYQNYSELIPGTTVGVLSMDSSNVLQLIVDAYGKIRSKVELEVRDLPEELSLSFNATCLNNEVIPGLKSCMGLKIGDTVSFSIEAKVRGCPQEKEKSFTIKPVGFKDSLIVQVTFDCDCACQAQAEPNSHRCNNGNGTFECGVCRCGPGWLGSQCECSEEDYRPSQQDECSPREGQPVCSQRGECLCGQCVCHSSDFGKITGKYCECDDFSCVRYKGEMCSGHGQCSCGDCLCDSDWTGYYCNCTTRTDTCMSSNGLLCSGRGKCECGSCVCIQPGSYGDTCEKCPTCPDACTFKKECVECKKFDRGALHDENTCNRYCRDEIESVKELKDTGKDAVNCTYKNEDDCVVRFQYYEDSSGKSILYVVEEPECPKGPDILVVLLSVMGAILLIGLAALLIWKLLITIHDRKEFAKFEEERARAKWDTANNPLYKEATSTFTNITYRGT
Method: In the following assay, GPIIb-IIIa is prepared in purified form, by a method such as described by Fitzgerald, L. A., et al., Anal Biochem (1985) 151:169-177, (the disclosure of which is incorporated herein by reference). GPIIb-IIIa is coated onto microtiter plates. The coated support is then contacted with fibrinogen and with the test material (e.g., compounds of Formula I) and incubated for a sufficient time to permit maximal binding of fibrinogen to the immobilized GPIIb-IIIa. Fibrinogen is typically provided at a concentration of about 5-50 nM and the test material can, if desired, be added at a series of dilution. Typical incubations are 2 to 4 hours at 25° C., the time and temperature being interdependent.
After incubation, the solution containing the fibrinogen and test material is removed and the level of binding of fibrinogen measured by quantitating bound fibrinogen to GPIIb-IIIa. Any suitable means of detection may be used, but it is convenient to employ labeled fibrinogen, for example using biotinylated labels. Such methods are well known in the art.
Purified platelet GPIIb-IIIa receptor was prepared as described by Fitzgerald, L. A., et al., Anal Biochem (1985) 151:169-177 (1985). Vitronectin receptor was prepared as described by Smith, J. W., J. Biol Chem (1988) 263:18726-18731. After purification, the receptors were stored in 0.1% Triton X-100 at 0.1-1.0 mg/ml.
The receptors were coated to the wells of 96-well flat-bottom ELISA plates (Linbro EIA-Plus microtiter plate, Flow Laboratories) after diluting 1:200 with a solution of 20 mM Tris-HCl, 150 mM NaCl, 1 mM CaCl2, pH 7.4, to reduce the Triton X-100 concentration to below its critical micellar concentration and adding an aliquot of 100 ul to each well. The wells were all allowed to incubate overnight at 4° C., and then aspirated to dryness. Additional sites were blocked by the addition of bovine serum albumin (BSA) at 35 mg/ml in the above buffer for 2 hours at 30° C. to prevent nonspecific binding. The wells were then washed once with binding buffer ([…] Tris-HCl, 100 mM NaCl 2 mM CaCl2, 1 mg/ml BSA).
The corresponding ligands (fibrinogen, von Willebrand Factor, or vitronectin) were conjugated to biotin using commercially available reagents and standard protocols. The labeled ligands were added to the receptor-coated wells at final concentration of 10 nM (100 ul/well) and incubated for 3 hours at 25° C. in the presence or absence of the test samples. After incubation, the wells are aspirated to dryness and bound ligand is quantitated.
The bound protein is detected by the addition of antibiotin antibody conjugated to alkaline phosphatase followed by addition of substrate (p-nitrophenyl phosphate), and determination of the optical density of each well at […]. Decreased color development is observed in wells incubated with test samples which inhibit binding of ligand to receptor.

SMILES | IC50 [1] [µM] | IC50 (GPIIb-IIIa) [nM]
N=C(N)c1ccc(COc2ccc3c(c2)CCC(CC(=O)O)C3)cc1 (racemic) [Example 20, (+−)-6-[[(4-Aminoimidomethyl)phenyl]methoxy]-1,2,3,4-tetrahydronapthylene-2-acetic Acid Trifluoroacetate] | 20 | 300
N=C(N)c1ccc(COc2ccc3c(c2)CCC(CC(=O)O)O3)cc1 (racemic) [Example 46, rac-(6-(4-(Aminoiminomethyl)phenylmethoxy)-3,4-dihydro-2H-1-benzopyran-2-yl)acetic Acid Trifluoroacetate] | 2.5 | 3.3
CCOC(=O)CC1CCc2cc(NC(=O)c3ccc(C(=N)N)cc3)ccc2O1 (racemic) [Example 47, Hydrochloride] | 0.24 | 770
N=C(N)c1ccc(C(=O)Nc2ccc3c(c2)CCC(CC(=O)O)O3)cc1 (racemic) [Example 48, rac-(6-(N-(4-(Aminoiminomethyl)benzoyl)amino)-3,4-dihydro-2H-1-benzopyran-2-yl)acetic Acid] | 0.066 | 4
CCOC(=O)CCC1(C)CCc2cc(NC(=O)c3ccc(C(=N)N)cc3)ccc2O1 (racemic) [Example 50, Ethyl rac-3-(6-(N-(4-(Aminoiminomethyl)benzoyl)amino)-3,4-dihydro-2-methyl-2H-1-benzopyran-2-yl)propanoate Hydrochloride] | 100 | 3930
CC1(CCC(=O)O)C=Cc2cc(OCc3ccc(C(=N)N)cc3)ccc2O1 (racemic) [Example 53, rac-3-(6-(4-(Aminoiminomethyl)phenylmethoxy)-2-methyl-2H-1-benzopyran-2-yl)propanoic Acid Hydrochloride] | 21 | 720
N=C(N)CCCCCOc1ccc2c(c1)CCC(CC(=O)O)O2 (racemic) [Example 55, rac-(6-(5-(Aminoiminomethyl)pentoxy)-3,4-dihydro-2H-1-benzopyran-2-yl)acetic Acid Trifluoroacetate] | > 100 | 3460
CC1(CCC(=O)O)CCc2cc(NC(=O)c3ccc(C(=N)N)cc3)ccc2O1 (racemic) [Example 56, rac-3-(6-(N-(4-(Aminoiminomethyl)benzoyl)amino)-3,4-dihydro-2-methyl-2H-1-benzopyran-2-yl)propanoic Acid] | 0.9 | 140
CCOC(=O)CC1CCc2cc(NC(=O)c3ccc(C(=N)NC)cc3)ccc2O1 (racemic) [Example 57, Hydrochloride] | 0.66 | > 10000
CNC(=N)c1ccc(C(=O)Nc2ccc3c(c2)CCC(CC(=O)O)O3)cc1 (racemic) [Example 58, rac-(3,4-Dihydro-6-(N-(4-((methylamino)iminomethyl)benzoyl)amino)-2H-1-benzopyran-2-yl)acetic Acid] | 0.28 | 33.4
CC1(CCCCCCCCC(=O)O)C=Cc2cc(C(=N)N)ccc2O1 (racemic) [Example 60, rac-9-(6-Aminoiminomethyl-2-methyl-2H-1-benzopyran-2-yl)nonanoic Acid] | > 10 | 1800
O=C(O)CC1CCc2cc(OCCC3CCNCC3)ccc2O1 (racemic) [Example 61, rac-(3,4-Dihydro-6-(2-(piperidin-4-yl)ethoxy)-2H-1-benzopyran-2-yl)acetic Acid Trifluoroacetate] | 100 | > 1000
N=C(N)c1ccc(C(=O)Nc2ccc3c(c2)CCC(CC(=O)O)C3=O)c(Cl)c1 (racemic) [Example 63, rac-(6-(N-(4-Aminoiminomethyl-2-chlorobenzoyl)amino)-1-oxo-1,2,3,4-tetrahydronaphthalen-2-yl)acetic Acid] | 0.092 | 9.4
CCOC(=O)CC1CCc2cc(NC(=O)c3ccc(NC(=N)N)cc3)ccc2O1 (racemic) [Example 64, Ethyl rac-(6-(N-(4-((Aminoiminomethyl)amino)benzoyl)amino)-3,4-dihydro-2H-1-benzopyran-2-yl)acetate] | 11 | 800
N=C(N)Nc1ccc(C(=O)Nc2ccc3c(c2)CCC(CC(=O)O)O3)cc1 (racemic) [Example 65, rac-(6-(N-(4-((Aminoiminomethyl)amino)benzoyl)amino)-3,4-dihydro-2H-1-benzopyran-2-yl)acetic Acid] | 4.8 | 180
CCOC(=O)CC1CCc2cc(NC(=O)c3ccc(C(=N)N)cc3F)ccc2O1 (racemic) [Example 69, Ethyl rac-(6-(N-(4-(Aminoiminomethyl)-2-fluorobenzoyl)amino)-3,4-dihydro-2H-1-benzopyran-2-yl)acetate Hydrochloride] | 0.16 | 9
N=C(N)c1ccc(C(=O)Nc2ccc3c(c2)CCC(CC(=O)O)O3)c(F)c1 (racemic) [Example 70, rac-(6-(N-(4-(Aminoiminomethyl)-2-fluorobenzoyl)amino)-3,4-dihydro-2H-1-benzopyran-2-yl)acetic Acid] | 0.082 | 1.3
